Results reported in ChEMBL document CHEMBL5365500, “Development and Antibacterial Properties of 4-[4-(Anilinomethyl)-3-phenylpyrazol-1-yl]benzoic Acid Derivatives as Fatty Acid Biosynthesis Inhibitors” (J Med Chem, 2023).
Values after ≈ are worked out from the molar mass of the structure shown.

What was measured:
Type in all cases: functional
Details in all cases: time 20-24 hrs
Staphylococcus aureus [1] = experiment: Antimicrobial activity against Staphylococcus aureus ATCC 25923 assessed as inhibition of visible growth measured after 20 to 24 hrs incubation by CLSI method
Staphylococcus aureus [2] = experiment: Antimicrobial activity against antibiotic-resistant Staphylococcus aureus ATCC BAA-2312 assessed as inhibition of visible growth measured after 20 to 24 hrs incubation by CLSI method
Staphylococcus aureus [3] = experiment: Antimicrobial activity against antibiotic-resistant Staphylococcus aureus ATCC 33591 assessed as inhibition of visible growth measured after 20 to 24 hrs incubation by CLSI method
Staphylococcus aureus [4] = experiment: Antimicrobial activity against antibiotic-resistant Staphylococcus aureus ATCC 33592 assessed as inhibition of visible growth measured after 20 to 24 hrs incubation by CLSI method
Staphylococcus aureus [5] = experiment: Antimicrobial activity against antibiotic-resistant Staphylococcus aureus ATCC 700699 assessed as inhibition of visible growth measured after 20 to 24 hrs incubation by CLSI method
[6] = system: Staphylococcus epidermidis; experiment: Antimicrobial activity against antibiotic-resistant Staphylococcus epidermidis ATCC 700296 assessed as inhibition of visible growth measured after 20 to 24 hrs incubation by CLSI method
Enterococcus faecalis [7] = experiment: Antimicrobial activity against antibiotic-susceptible Enterococcus faecalis ATCC 29212 assessed as inhibition of visible growth measured after 20 to 24 hrs incubation by CLSI method
Enterococcus faecalis [8] = experiment: Antimicrobial activity against antibiotic-resistant Enterococcus faecalis ATCC 51299 assessed as inhibition of visible growth measured after 20 to 24 hrs incubation by CLSI method
Enterococcus faecium = experiment: Antimicrobial activity against antibiotic-resistant Enterococcus faecium ATCC 700221 assessed as inhibition of visible growth measured after 20 to 24 hrs incubation by CLSI method
Bacillus subtilis = experiment: Antimicrobial activity against antibiotic-resistant Bacillus subtilis ATCC 6623 assessed as inhibition of visible growth measured after 20 to 24 hrs incubation by CLSI method

Compound | MIC (Staphylococcus aureus [1]) [µg/mL] | MIC (Staphylococcus aureus [2]) [µg/mL] | MIC (Staphylococcus aureus [3]) [µg/mL] | MIC (Staphylococcus aureus [4]) [µg/mL] | MIC (Staphylococcus aureus [5]) [µg/mL] | MIC [6] [µg/mL] | MIC (Enterococcus faecalis [7]) [µg/mL] | MIC (Enterococcus faecalis [8]) [µg/mL] | MIC (Enterococcus faecium) [µg/mL] | MIC (Bacillus subtilis) [µg/mL]
CC(C)(C)c1ccc(NCc2cn(-c3ccc(C(=O)O)cc3)nc2-c2ccc(F)cc2)cc1 | 4 (≈ 9.02 µM) | 2 (≈ 4.51 µM) | 2 (≈ 4.51 µM) | 4 (≈ 9.02 µM) | 4 (≈ 9.02 µM) | 8 (≈ 18 µM) | 8 (≈ 18 µM) | 8 (≈ 18 µM) | 4 (≈ 9.02 µM) | 2 (≈ 4.51 µM)
O=C(O)c1ccc(-n2cc(CNc3cc(Cl)cc(Cl)c3)c(-c3ccc(F)cc3)n2)cc1 | 1 (≈ 2.19 µM) | 1 (≈ 2.19 µM) | 1 (≈ 2.19 µM) | 1 (≈ 2.19 µM) | 2 (≈ 4.38 µM) | 2 (≈ 4.38 µM) | 4 (≈ 8.77 µM) | 4 (≈ 8.77 µM) | 4 (≈ 8.77 µM) | 0.5 (≈ 1.1 µM)
O=C(O)c1ccc(-n2cc(CNc3ccc(Br)c(C(F)(F)F)c3)c(-c3ccc(F)c(F)c3)n2)cc1 | 0.5 (≈ 0.905 µM) | 0.5 (≈ 0.905 µM) | 0.5 (≈ 0.905 µM) | 0.5 (≈ 0.905 µM) | 1 (≈ 1.81 µM) | 4 (≈ 7.24 µM) | 2 (≈ 3.62 µM) | 4 (≈ 7.24 µM) | 2 (≈ 3.62 µM) | 1 (≈ 1.81 µM)
COc1ccc(NCc2cn(-c3ccc(C(=O)O)cc3)nc2-c2ccc(F)cc2)cc1C(F)(F)F | 16 (≈ 33 µM) | 16 (≈ 33 µM) | 8 (≈ 16.5 µM) | 16 (≈ 33 µM) | 8 (≈ 16.5 µM) | 16 (≈ 33 µM) | 32 (≈ 65.9 µM) | 32 (≈ 65.9 µM) | 32 (≈ 65.9 µM) | 8 (≈ 16.5 µM)
O=C(O)c1ccc(-n2cc(CNc3ccc(Cl)c(Cl)c3)c(-c3cccc(F)c3)n2)cc1 | 2 (≈ 4.38 µM) | 2 (≈ 4.38 µM) | 1 (≈ 2.19 µM) | 4 (≈ 8.77 µM) | 2 (≈ 4.38 µM) | 4 (≈ 8.77 µM) | 8 (≈ 17.5 µM) | 8 (≈ 17.5 µM) | 4 (≈ 8.77 µM) | 1 (≈ 2.19 µM)
O=C(O)c1ccc(-n2cc(CNc3ccc(Cl)c(C(F)(F)F)c3)c(-c3ccc(F)cc3)n2)cc1 | 2 (≈ 4.08 µM) | 2 (≈ 4.08 µM) | 1 (≈ 2.04 µM) | 2 (≈ 4.08 µM) | 1 (≈ 2.04 µM) | 4 (≈ 8.17 µM) | 8 (≈ 16.3 µM) | 8 (≈ 16.3 µM) | 2 (≈ 4.08 µM) | 1 (≈ 2.04 µM)
NS(=O)(=O)c1ccc(NCc2cn(-c3ccc(C(=O)O)cc3)nc2-c2ccc(F)cc2)cc1 | > 32 | > 32 | > 32 | > 32 | > 32 | 16 (≈ 34.3 µM) | > 32 | > 32 | > 32 | > 32
O=C(O)c1ccc(-n2cc(CNc3cc(Br)cc(C(F)(F)F)c3)c(-c3ccc(F)cc3)n2)cc1 | 2 (≈ 3.74 µM) | 1 (≈ 1.87 µM) | 0.5 (≈ 0.936 µM) | 1 (≈ 1.87 µM) | 1 (≈ 1.87 µM) | 4 (≈ 7.49 µM) | 4 (≈ 7.49 µM) | 2 (≈ 3.74 µM) | 2 (≈ 3.74 µM) | 1 (≈ 1.87 µM)
O=C(O)c1ccc(-n2cc(CNc3cc(Cl)cc(C(F)(F)F)c3)c(-c3ccc(F)cc3)n2)cc1 | 4 (≈ 8.17 µM) | 4 (≈ 8.17 µM) | 2 (≈ 4.08 µM) | 4 (≈ 8.17 µM) | 2 (≈ 4.08 µM) | 8 (≈ 16.3 µM) | 16 (≈ 32.7 µM) | 16 (≈ 32.7 µM) | 4 (≈ 8.17 µM) | 4 (≈ 8.17 µM)
O=C(O)c1ccc(-n2cc(CNc3cc(Cl)c(F)c(Cl)c3)c(-c3ccc(F)cc3)n2)cc1 | 1 (≈ 2.11 µM) | 1 (≈ 2.11 µM) | 0.5 (≈ 1.05 µM) | 1 (≈ 2.11 µM) | 2 (≈ 4.22 µM) | 2 (≈ 4.22 µM) | 8 (≈ 16.9 µM) | 4 (≈ 8.43 µM) | 4 (≈ 8.43 µM) | 1 (≈ 2.11 µM)
O=C(O)c1ccc(-n2cc(CNc3cc(Cl)c(F)c(Cl)c3)c(-c3ccc(F)c(F)c3)n2)cc1 | 1 (≈ 2.03 µM) | 0.5 (≈ 1.02 µM) | 0.25 (≈ 0.508 µM) | 1 (≈ 2.03 µM) | 1 (≈ 2.03 µM) | 2 (≈ 4.06 µM) | 4 (≈ 8.13 µM) | 4 (≈ 8.13 µM) | 1 (≈ 2.03 µM) | 0.5 (≈ 1.02 µM)
O=C(O)c1ccc(-n2cc(CNc3cccc(C(F)(F)F)c3)c(-c3ccc(F)cc3)n2)cc1 | 8 (≈ 17.6 µM) | 4 (≈ 8.78 µM) | 2 (≈ 4.39 µM) | 8 (≈ 17.6 µM) | 4 (≈ 8.78 µM) | 8 (≈ 17.6 µM) | 16 (≈ 35.1 µM) | 16 (≈ 35.1 µM) | 8 (≈ 17.6 µM) | 2 (≈ 4.39 µM)
O=C(O)c1ccc(-n2cc(CNc3cc(F)cc(C(F)(F)F)c3)c(-c3cccc(F)c3)n2)cc1 | 2 (≈ 4.22 µM) | 2 (≈ 4.22 µM) | 1 (≈ 2.11 µM) | 1 (≈ 2.11 µM) | 2 (≈ 4.22 µM) | 4 (≈ 8.45 µM) | 8 (≈ 16.9 µM) | 8 (≈ 16.9 µM) | 4 (≈ 8.45 µM) | 1 (≈ 2.11 µM)
O=C(O)c1ccc(-n2cc(CNc3cccc(OC(F)(F)F)c3)c(-c3ccc(F)c(F)c3)n2)cc1 | 4 (≈ 8.17 µM) | 2 (≈ 4.09 µM) | 1 (≈ 2.04 µM) | 4 (≈ 8.17 µM) | 4 (≈ 8.17 µM) | 8 (≈ 16.3 µM) | 8 (≈ 16.3 µM) | 8 (≈ 16.3 µM) | 4 (≈ 8.17 µM) | 1 (≈ 2.04 µM)
O=C(O)c1ccc(-n2cc(CNc3ccc(Cl)cc3)c(-c3ccc(F)c(F)c3)n2)cc1 | > 32 | > 32 | > 32 | > 32 | > 32 | > 32 | > 32 | > 32 | > 32 | 4 (≈ 9.09 µM)
O=C(O)c1ccc(-n2cc(CNc3ccc(F)cc3)c(-c3ccc(F)c(F)c3)n2)cc1 | > 32 | > 32 | > 32 | > 32 | > 32 | > 32 | > 32 | > 32 | > 32 | > 32
O=C(O)c1ccc(-n2cc(CNc3cccc(Br)c3)c(-c3ccc(F)cc3)n2)cc1 | 8 (≈ 17.2 µM) | 8 (≈ 17.2 µM) | 4 (≈ 8.58 µM) | 16 (≈ 34.3 µM) | 8 (≈ 17.2 µM) | 16 (≈ 34.3 µM) | 32 (≈ 68.6 µM) | 32 (≈ 68.6 µM) | 16 (≈ 34.3 µM) | 4 (≈ 8.58 µM)
O=C(O)c1ccc(-n2cc(CNc3cc(F)cc(C(F)(F)F)c3)c(-c3ccc(F)cc3)n2)cc1 | 2 (≈ 4.22 µM) | 2 (≈ 4.22 µM) | 2 (≈ 4.22 µM) | 4 (≈ 8.45 µM) | 2 (≈ 4.22 µM) | 4 (≈ 8.45 µM) | 16 (≈ 33.8 µM) | 16 (≈ 33.8 µM) | 8 (≈ 16.9 µM) | 4 (≈ 8.45 µM)
O=C(O)c1ccc(-n2cc(CNc3ccc(Oc4ccccc4)cc3)c(-c3ccc(F)c(F)c3)n2)cc1 | 1 (≈ 2.01 µM) | 1 (≈ 2.01 µM) | 1 (≈ 2.01 µM) | 2 (≈ 4.02 µM) | 2 (≈ 4.02 µM) | 2 (≈ 4.02 µM) | 4 (≈ 8.04 µM) | 4 (≈ 8.04 µM) | 2 (≈ 4.02 µM) | 1 (≈ 2.01 µM)
O=C(O)c1ccc(-n2cc(CNc3ccc(Br)cc3)c(-c3ccc(F)cc3)n2)cc1 | 8 (≈ 17.2 µM) | 16 (≈ 34.3 µM) | 4 (≈ 8.58 µM) | > 32 | 16 (≈ 34.3 µM) | > 32 | > 32 | > 32 | > 32 | 4 (≈ 8.58 µM)
O=C(O)c1ccc(-n2cc(CNc3ccc(Br)c(C(F)(F)F)c3)c(-c3ccc(F)cc3)n2)cc1 | 2 (≈ 3.74 µM) | 1 (≈ 1.87 µM) | 0.5 (≈ 0.936 µM) | 2 (≈ 3.74 µM) | 1 (≈ 1.87 µM) | 4 (≈ 7.49 µM) | 4 (≈ 7.49 µM) | 4 (≈ 7.49 µM) | 2 (≈ 3.74 µM) | 1 (≈ 1.87 µM)
O=C(O)c1ccc(-n2cc(CNc3cc(Cl)ccc3Cl)c(-c3cccc(F)c3)n2)cc1 | 32 (≈ 70.1 µM) | 16 (≈ 35.1 µM) | 32 (≈ 70.1 µM) | 32 (≈ 70.1 µM) | 32 (≈ 70.1 µM) | 32 (≈ 70.1 µM) | 32 (≈ 70.1 µM) | 32 (≈ 70.1 µM) | 32 (≈ 70.1 µM) | 8 (≈ 17.5 µM)
O=C(O)c1ccc(-n2cc(CNc3ccc(Br)cc3)c(-c3cccc(F)c3)n2)cc1 | 4 (≈ 8.58 µM) | 8 (≈ 17.2 µM) | 4 (≈ 8.58 µM) | 16 (≈ 34.3 µM) | 16 (≈ 34.3 µM) | 16 (≈ 34.3 µM) | 32 (≈ 68.6 µM) | 32 (≈ 68.6 µM) | 16 (≈ 34.3 µM) | 4 (≈ 8.58 µM)
O=C(O)c1ccc(-n2cc(CNc3cc(F)c(F)c(F)c3)c(-c3ccc(F)c(F)c3)n2)cc1 | 8 (≈ 17.4 µM) | 8 (≈ 17.4 µM) | 4 (≈ 8.71 µM) | 8 (≈ 17.4 µM) | 8 (≈ 17.4 µM) | 16 (≈ 34.8 µM) | > 32 | > 32 | 8 (≈ 17.4 µM) | 4 (≈ 8.71 µM)
O=C(O)c1ccc(-n2cc(CNc3ccccc3)c(-c3ccc(F)c(F)c3)n2)cc1 | 16 (≈ 39.5 µM) | 32 (≈ 78.9 µM) | 16 (≈ 39.5 µM) | 32 (≈ 78.9 µM) | 32 (≈ 78.9 µM) | 16 (≈ 39.5 µM) | > 32 | > 32 | 32 (≈ 78.9 µM) | 8 (≈ 19.7 µM)
O=C(O)c1ccc(-n2cc(CNc3ccc(Cl)c(Cl)c3)c(-c3ccc(F)c(F)c3)n2)cc1 | 1 (≈ 2.11 µM) | 1 (≈ 2.11 µM) | 0.5 (≈ 1.05 µM) | 1 (≈ 2.11 µM) | 2 (≈ 4.22 µM) | 2 (≈ 4.22 µM) | 4 (≈ 8.43 µM) | 8 (≈ 16.9 µM) | 2 (≈ 4.22 µM) | 0.5 (≈ 1.05 µM)
O=C(O)c1ccc(-n2cc(CNc3cccc(C(F)(F)F)c3)c(-c3ccc(F)c(F)c3)n2)cc1 | 4 (≈ 8.45 µM) | 2 (≈ 4.22 µM) | 1 (≈ 2.11 µM) | 4 (≈ 8.45 µM) | 8 (≈ 16.9 µM) | 8 (≈ 16.9 µM) | 8 (≈ 16.9 µM) | 8 (≈ 16.9 µM) | 4 (≈ 8.45 µM) | 1 (≈ 2.11 µM)
